What all share (type): cell-based
One data set concerns β-H-tococcus. As to the kind of experiment: MBC, agar plating of dilutions without growth. Conditions: 99.9% bactericidal. The text has this: In this paper, antimicrobial activities of 24 QASs were detected by quantitative tests. […] Benzalkonium chloride (BZK) and chlorhexidine acetate (CA) was selected as positive controls. Representative compound POT-C12QAS (2) which synthesised and evaluated in previous work was also taken as a reference compound in MIC, MBC and cytotoxicity tests. […]
agriculture were used as target pathogens in this study, including three strains of Gram-positive bacteria (S. Aureus, α-H-tococcus, β-H-tococcus), three strains of Gram-negative bacteria (E. coli, P. aeruginosa, Proteus vulgaris) and four strains of fungi (Canidia albicans, Cytospora mandshurica, Physalospora piricola, Aspergillus niger). The antimicrobial tests were assayed, according to standard CLSI methods for antimicrobial dilution susceptibility tests to measure the minimum inhibitory concentration (MIC) and minimum bactericidal concentration (MBC)2.
A broth tube dilution method was followed to determine the MIC values for all the screened compounds against the micro-organisms, and for comparison benzalkonium chloride (BZK) and chlorhexidine acetate (CA) was used as a reference. For sample preparation, each of the test compounds and reference were dissolved in DMSO or sterile water at a concentration of 1600 μg/mL, and further dilutions of the compounds and reference in culture medium MHB (Muller-Hinton Broth) were prepared at the required quantities of 400, 200, 100 etc., down to 0.39 μg/mL. Bacterial strains and fungal strains were maintained on MHA (Muller-Hinton Agar) medium at 37℃ or 28 ℃ for 12 h or 72h, respectively. The microbial inocula were prepared by suspension in 10 mL of culture medium for colonies from culture on MHA. The cell density of each inoculum was adjusted in culture medium of a 0.5 McFarland standard (1-2×10^8 CFU/mL). The final amount applied was 10^5 CFU/mL for bacteria and fungi. The microbial inocula were added to the twofold diluted samples. One growth control tube was prepared […] the addition of the compound and one blank tube was prepared without the addition of the microorganism. MIC values were read after incubation at 37℃ or 28 ℃ for bacterial and fungal strains, respectively. […]
was placed on agar plates in triplicate, and incubated at 37℃ or 28 ℃ for 12 h or 72h. The number of colonies on each plate was read, and the MBC was determined as the lowest concentration that achieved a 99.9% bactericidal in the agar plate.

A further data set deals with red blood cells. As to the kind of experiment: Haemolysis assay. Conditions: human red blood cells, 1 h at 37 ℃. The procedure: The surfactant may be absorbed and penetrate to the cell membrane, where it makes osmotic phenomena by altering the permeability of membrane, which in turn causes the cellular lysis. Haemolysis assay gives quantitative estimation about haemoglobin release when red blood cells are treated with QASs. Haemolytic assay of QASs at different concentration was carried out in Table 4. […] For 5a-b, 6a-b, 10a-c, 13a-b, and 16a-d, their safe concentration can more than 100 μg/mL. Compared with BZK and CA, all QASs were safe to be used when they circulated into the blood in low concentration. […]
The human blood from healthy individual was collected in a tube containing heparin, and the blood was centrifuged at 1500 rpm for 3 min. The […] (Erythrocyte) was collected and plasma was discarded and further washed five times with sterile normal saline solution. Then the cells were diluted to 0.2% of their volume with normal saline solution. 2 mL of the diluted red blood cells suspension was mixed with (a) 2 mL of normal salinesolution as a negative control; (b) 2 mL of distilled water as a positive control; (c) 2 mL of QAS solution which were dispersed into normal saline solution at the different concentrations ranging from 3.125 to 400 μg/mL. Then the mixtures were shaken well and incubated for 1 h at 37 ℃. Finally, the mixtures were centrifuged for 5min at 2000 r/min and the absorbances of supernatant at 540 nm was measured by a microplate reader (Multiskan MK3-Thermo Labsystems, USA). The hemolysis ratio was calculated as follows: The hemolysis ratio(%) = (OD Sample−OD Negative)/(OD Positive −OD Negative) ×100%. The hemolysis evaluation of QASs was performed in triplicate and results were expressed as the mean ± SD.

The test system of data set [1] is human immortalised epidermal (HaCat) cell line. Description: Cytotoxicity, MTT assay. For orientation: Tetrazolium assays rely on reduction of a dye to a coloured formazan, in cell work by metabolically active cells.
In data set [2] the test system is human normal liver (LO2) cell line. As to the kind of experiment: Cytotoxicity, MTT assay.

As for “Benzalkonium chloride [BZK, reference compound]”, the “Minimal bactericidal concentration (MBC)” value with β-H-tococcus worked out at 1.56 mg/L. In addition, the Haemolysis rate is 1.51 ± 0.31% with red blood cells (6.25 μg/mL); 1.39 ± 0.38% with red blood cells (12.50 μg/mL); 12.69 ± 1.87% with red blood cells (25.00 μg/mL); 63.85 ± 4.56% with red blood cells (50.00 μg/mL); 92.36 ± 3.78% with red blood cells (100.00 μg/mL); 96.28 ± 2.97% with red blood cells (200.00 μg/mL). In the data set on red blood cells (400.00 μg/mL), this substance registered a Haemolysis rate of 98.53 ± 1.23%. The “Cytotoxicity IC50” value in data set [1] was found to be 3.19 ± 0.26 mg/L; in data set [2], 2.12 ± 0.43 mg/L.

The values are drawn from PMC6010013, “Synthesis, physiochemical property and antimicrobial activity of novel quaternary ammonium salts” (Journal of Enzyme Inhibition and Medicinal Chemistry, 2017).
